Laboratory results: PMC8252726, “Automated Glycan Assembly of ^19F‐labeled Glycan Probes Enables High‐Throughput NMR Studies of Protein–Glycan Interactions” (Angewandte Chemie (International Ed. in English), 2021)

Legend:
Pdα26ST = molecular target: T1, Pdα26ST (Photobacterium damselae, UniProt O66375); test: CPMG […] NMR screening; type: binding; conditions: without donor CMP-Neu5Ac
T1 construct: gene bst
T1 sequence (O66375 16-675): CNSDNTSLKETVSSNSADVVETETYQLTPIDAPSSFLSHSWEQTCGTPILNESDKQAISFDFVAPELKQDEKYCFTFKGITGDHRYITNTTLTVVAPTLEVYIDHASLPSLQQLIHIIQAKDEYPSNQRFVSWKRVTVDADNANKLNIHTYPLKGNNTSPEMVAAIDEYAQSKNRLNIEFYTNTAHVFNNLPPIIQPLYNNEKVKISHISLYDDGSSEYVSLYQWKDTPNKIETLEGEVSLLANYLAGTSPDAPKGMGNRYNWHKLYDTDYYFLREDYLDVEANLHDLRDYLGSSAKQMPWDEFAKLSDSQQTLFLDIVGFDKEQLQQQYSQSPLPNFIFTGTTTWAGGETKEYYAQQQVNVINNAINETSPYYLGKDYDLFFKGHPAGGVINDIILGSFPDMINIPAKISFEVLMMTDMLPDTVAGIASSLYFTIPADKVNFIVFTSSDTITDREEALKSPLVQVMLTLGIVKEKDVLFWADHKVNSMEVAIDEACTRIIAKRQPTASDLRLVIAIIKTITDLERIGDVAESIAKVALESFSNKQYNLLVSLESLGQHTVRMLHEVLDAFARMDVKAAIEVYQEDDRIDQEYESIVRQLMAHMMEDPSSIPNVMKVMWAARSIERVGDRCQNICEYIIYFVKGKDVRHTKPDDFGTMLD

β‐galactosidase = test: real-time […] NMR of product formation; type: biochemical; conditions: Henry-Michaelis-Menten fit
Pmα23ST = molecular target: T2, Pmα23ST (Pasteurella multocida, UniProt Q15KI8); test: CPMG […] NMR screening; type: binding; conditions: without donor; also sialylated with CMP-Neu5Ac
T2 construct: gene Pm0188
T2 sequence (Q15KI8 26-412): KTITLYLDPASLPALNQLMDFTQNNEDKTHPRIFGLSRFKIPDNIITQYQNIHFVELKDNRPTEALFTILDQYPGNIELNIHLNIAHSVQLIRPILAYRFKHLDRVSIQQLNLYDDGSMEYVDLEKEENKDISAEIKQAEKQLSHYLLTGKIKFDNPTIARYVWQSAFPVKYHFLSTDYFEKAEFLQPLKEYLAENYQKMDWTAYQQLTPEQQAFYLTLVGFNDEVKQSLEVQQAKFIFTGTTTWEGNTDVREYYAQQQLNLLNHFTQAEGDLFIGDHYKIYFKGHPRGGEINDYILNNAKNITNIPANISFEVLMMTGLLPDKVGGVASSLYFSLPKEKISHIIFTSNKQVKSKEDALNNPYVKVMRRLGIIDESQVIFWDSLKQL

BambL = molecular target: T3, BambL (Burkholderia ambifaria, UniProt Q0B4G1); test: […] NMR titration (ligand-observed); type: binding
T3 construct: gene Bamb_5415; soluble lectin; 15N-labeled for TROSY
T3 sequence (Q0B4G1 entry or part of it): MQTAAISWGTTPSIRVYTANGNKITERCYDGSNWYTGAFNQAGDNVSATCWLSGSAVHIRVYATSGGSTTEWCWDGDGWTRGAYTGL

LecB = molecular target: T4, LecB (Pseudomonas aeruginosa, UniProt Q9HYN5); test: […] and CPMG NMR screening; type: binding; conditions: fucosylated F-glycans as a group
T4 construct: soluble lectin
T4 sequence (Q9HYN5 entry or part of it): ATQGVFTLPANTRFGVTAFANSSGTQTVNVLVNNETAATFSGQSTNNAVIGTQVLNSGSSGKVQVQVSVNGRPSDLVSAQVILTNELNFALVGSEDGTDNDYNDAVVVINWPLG

Row | Compound | CPMG 19F NMR screening (Pdα26ST) | Km (β‐galactosidase) [µM] | CPMG 19F NMR screening (Pmα23ST) | Kd (BambL) [µM] | 19F and CPMG NMR screening (LecB)
1 | NCCCCCO[C@@H]1O[C@H](CO)[C@@H](O[C@@H]2O[C@H](CO)[C@H](O)[C@H](O)[C@H]2O)[C@H](F)[C@H]1O [F‐Lac] | Shorter non‐branched glycans (F‐Lac and F‐nLac4) showed stronger binding than longer branched ones | 86.5 ± 10.5 | – | – | –
2 | CC(=O)N[C@H]1[C@H](O[C@H]2[C@@H](O)[C@@H](CO)O[C@@H](O[C@H]3[C@H](F)[C@@H](O)[C@H](OCCCCCN)O[C@@H]3CO)[C@@H]2O)O[C@H](CO)[C@@H](O[C@@H]2O[C@H](CO)[C@H](O)[C@H](O)[C@H]2O)[C@@H]1O [F‐nLac4] | Shorter non‐branched glycans (F‐Lac and F‐nLac4) showed stronger binding than longer branched ones | – | Shorter non‐branched glycans (F‐Lac and F‐nLac4) showed stronger binding than longer branched ones | – | –
3 | CC(=O)N[C@H]1[C@H](O[C@H]2[C@@H](O)[C@@H](CO)O[C@@H](O[C@H]3[C@H](F)[C@@H](O)[C@H](OCCCCCN)O[C@@H]3CO)[C@@H]2O)O[C@H](CO)[C@@H](O[C@@H]2O[C@H](CO)[C@H](O)[C@H](O)[C@H]2O[C@@H]2O[C@@H](C)[C@@H](O)[C@@H](O)[C@@H]2O)[C@@H]1O[C@@H]1O[C@@H](C)[C@@H](O)[C@@H](O)[C@@H]1O [F‐Le^y] | – | – | – | 14 ± 2 | –
4 | CC(=O)N[C@H]1[C@H](O[C@H]2[C@@H](O)[C@@H](CO)O[C@@H](O[C@H]3[C@H](F)[C@@H](O)[C@H](OCCCCCN)O[C@@H]3CO)[C@@H]2O)O[C@H](CO)[C@@H](O[C@@H]2O[C@H](CO)[C@H](O)[C@H](O)[C@H]2O[C@@H]2O[C@@H](C)[C@@H](O)[C@@H](O)[C@@H]2O)[C@@H]1O [F‐H type 2] | – | – | – | 9 ± 2 | bacterial (LecA, LecB, and BambL) and mammalian (DC‐SIGN ECD) lectins preferred fucosylated glycans
